Consider one molecule from ChEMBL document CHEMBL4680246, “Design, synthesis and biological evaluation of novel O-carbamoyl ferulamide derivatives as multi-target-directed ligands for the treatment of Alzheimer's disease” (Eur J Med Chem, 2020).

The nature of data set [1]: Effect on tau protein level in mouse HT22 cells transfected with pRK5-GFP-Tau P301L plasmid assessed as fluorescence intensity at 20 uM by fluorescence microscopy (reference value: 33.6). It counts as functional, HT-22.
The nature of data set [2]: Acute toxicity in Kunming mouse assessed as damage in lung at 50 to 1000 mg/kg measured after 7 days. It counts as organism-based. As to conditions: in vivo, 168 h, dose 50-1000 mg/kg, time 7 day.
Data set [3] can be described thus: Toxicity in AlCl3-induced Zebrafish model of Alzheimer's disease assessed as mortality at 100 ug/ml relative to control. The note with it: in vivo, at 100 µg/mL. More on the design: species or system Danio rerio.

`CCN(C)C(=O)Oc1ccc(/C=C/C(=O)N2CCc3ccccc3C2)cc1OC`: the Flu intensity in data set [1] is 17.9. Besides, in data set [2], the Activity result is listed as “Non-Toxic”. Also, the mortality at 100 ug/ml in data set [3] amounted to 100%.
